Data taken from PubChem BioAssay AID977625 (Broad Institute, 2014).
Inconclusive results are not listed. Active and inactive are the calls of the source.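 How the source made its calls: active means red signal from normal-ribosome E. coli cut at least twice as much as green humanized-ribosome signal, growth cut under 30%; inconclusive means no clear call, values can overlap the other calls; inactive means the rest.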

Assays:
[1] = growth inhibition of h34-humanized E. coli versus wild-type, dose response, h34 mutant GFP vs wild-type RFP, cherry-pick, OD600 (AID 977625); details: E. coli h34-humanized GFP strain growth, fluorescence, 24 h; at 50 µM (top of the series)
[2] = tested on: E. coli mixed culture (wild-type RFP + h34-humanized GFP), total OD600 growth, 24 h; test: as above; details: E. coli h34-humanized GFP strain growth, fluorescence, 24 h; measured here: total culture OD600 growth
[3] = tested on: E. coli h34-humanized GFP strain growth, fluorescence, 24 h; test: as above

SMILES	activity change, negative = inhibition [1]	AC50 [2]	AC50 [3]
CCOC(=O)c1c(NC(=O)Cc2cccs2)sc(C)c1C	12.4 (inactive)	> 100 µM	–
Cc1ccc(S(=O)(=O)N2CC[C@H]3[C@H](CO)Nc4ccc(Br)cc4[C@H]32)cc1	7.09 (inactive)	–	–
CC1(Cc2ccccc2C#N)C(=O)Nc2cc(-c3ccccc3Cl)ccc21 (stereo unspecified)	–	24.8 µM	–
COc1ccc(-n2cc(-c3ccccc3)c3c(N4CCOCC4)ncnc32)cc1	–	42.2 µM	> 100 µM (inactive)
Cc1ccc(C)c(NC(=O)CSc2nc3nc(-c4cccs4)cc(C(F)(F)F)c3c(=O)[nH]2)c1	-48.2 (inactive)	36.2 µM	–
CCN(CC)CCn1c2ccccc2c2nc3ccc([N+](=O)[O-])cc3cc21	–	4.35 µM	1.39 µM (inactive)
COc1ccc2[nH]c3c(=O)n(CCCCC(=O)NCCC(C)C)c(=S)[nH]c3c2c1	-5.72 (inactive)	–	–
COc1ccc(Cn2c(-c3ccc(Cl)cc3)c[n+]3ccccc23)cc1	30.2 (inactive)	–	–
Cc1noc(C)c1NC(=O)Nc1ccc2c(c1)C(=O)N([C@H](C)CO)C[C@@H](C)[C@@H](CN(C)C(=O)Nc1ccc3c(c1)OCO3)OCCCC[C@@H](C)O2	0.093 (inactive)	–	–
COc1cc2c(cc1[N+](=O)[O-])-c1ccc([N+](=O)[O-])cc1C2	-48.1 (inactive)	0.378 µM	–
O=C(O)c1cc([N+](=O)[O-])ccc1NCc1ccccc1	–	20.1 µM	–
CCn1c(-c2cc(-c3ccc(OC(C)C)cc3)nc3ccccc23)n[nH]c1=S	–	–	> 100 µM (inactive)
COc1cccc(C(=O)Nc2cc(C)nn2-c2ccccc2)c1OC	18.9 (inactive)	> 100 µM	–
C[C@@H]1CCCCO[C@H](CN(C)C(=O)CCCN(C)C)[C@H](C)CN([C@@H](C)CO)C(=O)c2cc(NC(=O)Nc3cccc4ccccc34)ccc2O1	21.7 (inactive)	> 100 µM	–
